# Entries after “also recorded” stand apart in the source; their conditions may differ.
# Key:
# [1] = tested on: NF-kB target proteins iNOS, COX2, NLRP3, and IL-1β; experiment: LPS-induced NF-kB target protein expression in BMDCs (western blot); type: cell-based; settings: BMDCs, 10, 25, 50 nM, LPS (500 ng/ml), FIG. 1C
# Experimental: FIG. 1A depicts plots of relative NF-κB luciferase activity (RLU) for compound 22 and compound 1 (also referred to as “CLM-001”) assayed at 8-point concentrations (10 μM, 5 μM, […], 1.25 μM, 0.63 μM, 0.31 μM, 0.16 μM, […], and 0 μM). FIG. 1B depicts plots of the inhibitory concentrations (IC50) for compounds 22 (CLM-022) and 1 (CLM-001).
# LPS-induced NF-kB target protein expression: Bone marrow-derived dendritic cells (BMDCs) were pre-treated with compound 22 or compound 1 at three concentrations (10 nM, 25 nM, 50 nM) for an hour and then treated overnight with LPS (500 ng/ml). The next day, the cells were subjected to western blotting for iNOS, COX2, NLRP3, and IL-1β.
# NLRP3 inflammasome [2] = experiment: ASC complex formation in THP-1 cells (western blot), LPS+Nigericin; type: cell-based, human; settings: THP-1, 50 nM and 100 nM, FIG. 3A
# Experimental: This example illustrates a study of the anti-inflammatory potential of an exemplary celastrol derivative of the present disclosure (compound 22) using an NLRP3 inflammasome assay in THP-1, a human monocytic cell line, activated with LPS+Nigericin in the presence of compound 22 or the known NLRP3 inhibitor compound, MCC950 (CAS 256373-96-3), as a benchmark molecule.
# Human THP-1 cells were treated with LPS+Nigericin as shown previously (FIG. 2) where increasing dose of compound 1, compound 22, or MCC950 were added as indicated.
# NLRP3 inflammasome [3] = experiment: Detection of ASC complex and caspase-1 activity in THP-1 cells by Amnis imaging flow cytometry; type: cell-based, human; settings: THP-1, LPS+Nigericin
# Experimental: FIG. 3A shown images of western blot analysis of THP1 cells treated with LPS, and compound 1 (CLM-001) or compound 22, followed by Nigericin for NLRP3 inflammasome activation. The inflammasome ASC complex in the control cells (LPS+Nigericin) was compared with the treatment of compound 1 (CLM-001) (50 nM, 100 nM), compound 22 (CLM-022) (50 nM, 100 nM), and MCC950 (100 nM, 200 nM). FLICA (green) represents active caspase-1, ASC (red) complex is shown as a red speckle near the nucleus membrane, and DAPI stain for nucleus (blue) captured in the AMNIS analysis. FIG. 3B depicts the cell numbers stained as ASC+ (red) and FLICA+ (green) in the AMNIS were counted in order to compare the level of NLRP3 inflammasome activity in the cells treated as indicated (left). The ASC+ and FLICA+ cells were also plotted as a percentage of total cell count (right). […]
# Amnis Imaging flow cytometry (Luminex Co.) is a high-throughput, single-cell, fluorescence-based image analysis method which can detect inflammasome by acquiring images of cellular distribution of ASC complex and active caspase-1. […] The treated cells were subjected to ASC staining and visualization of active caspase-1 using FLICA, a caspase-1 substrate exerting fluorescence upon cleavage. Finally, the ASC+/FLICA+ cells were counted as THP-1 cells with active NLRP3 inflammasome complex.
# NLRP3 = molecular target: T1, NLRP3 (Homo sapiens, UniProt Q96P20); experiment: DARTS assay: protection of NLRP3 from Pronase degradation in THP-1 lysates; type: binding; settings: 10 μM, Pronase (50-500 ng/μg of protein), FIG. 6A, 6B
# T1 construct: DARTS with Pronase, NACHT and PYD antibodies
# Text: (§1) The NLRP3 inflammasome is composed of a multi-protein complex and the exact molecular mode of NLRP3 activation remains unclear. Currently, there are no NLRP3 inflammasome inhibitors in the clinic, and it is important to identify the mechanism of action and molecular target of potential small molecules that interact with NLRP3. This example illustrates a study of the ability of CLM-022 to protect the NLRP3 molecule as determined using a drug affinity responsive target stability (DARTS) assay. DARTS assay is a robust method to identify small molecule target protein. In case of a drug-target interaction, the small molecule protects target protein from degradation by proteinase (Pronase) whereas free-proteins may be degraded very efficiently in the given condition.
# (§2) The DARTS assay was performed using THP-1 lysates pretreated with LPS and Nigericin to induce activation of NLRP3 inflammasome. THP-1 cells (1×10^5/mL) were treated with LPS (100 ng/ml) for 3 hours, followed by 10 μM Nigericin for an additional 30 minutes. Pronase (50-500 ng/μg of protein) was added to the lysate with CLM-022 (10 μM) or MCC950 (10 μM) for the indicated time (10-15 min) at room temperature. The protein components of NLRP3 inflammasome were visualized using antibody recognizing NLRP3-Natch domain (FIG. 6A), NLRP-PYD domain (FIG. 6B), or NEK7 protein (FIG. 6C). […]
# NEK7 = molecular target: T2, NEK7 (Homo sapiens, UniProt Q8TDX7); experiment: DARTS assay: protection of NEK7 from Pronase degradation in THP-1 lysates; type: binding; settings: 10 μM, FIG. 6C
# T2 construct: DARTS with Pronase, immunoblot
# Text: as §1, §2
# T1 sequence (Q96P20 whole entry): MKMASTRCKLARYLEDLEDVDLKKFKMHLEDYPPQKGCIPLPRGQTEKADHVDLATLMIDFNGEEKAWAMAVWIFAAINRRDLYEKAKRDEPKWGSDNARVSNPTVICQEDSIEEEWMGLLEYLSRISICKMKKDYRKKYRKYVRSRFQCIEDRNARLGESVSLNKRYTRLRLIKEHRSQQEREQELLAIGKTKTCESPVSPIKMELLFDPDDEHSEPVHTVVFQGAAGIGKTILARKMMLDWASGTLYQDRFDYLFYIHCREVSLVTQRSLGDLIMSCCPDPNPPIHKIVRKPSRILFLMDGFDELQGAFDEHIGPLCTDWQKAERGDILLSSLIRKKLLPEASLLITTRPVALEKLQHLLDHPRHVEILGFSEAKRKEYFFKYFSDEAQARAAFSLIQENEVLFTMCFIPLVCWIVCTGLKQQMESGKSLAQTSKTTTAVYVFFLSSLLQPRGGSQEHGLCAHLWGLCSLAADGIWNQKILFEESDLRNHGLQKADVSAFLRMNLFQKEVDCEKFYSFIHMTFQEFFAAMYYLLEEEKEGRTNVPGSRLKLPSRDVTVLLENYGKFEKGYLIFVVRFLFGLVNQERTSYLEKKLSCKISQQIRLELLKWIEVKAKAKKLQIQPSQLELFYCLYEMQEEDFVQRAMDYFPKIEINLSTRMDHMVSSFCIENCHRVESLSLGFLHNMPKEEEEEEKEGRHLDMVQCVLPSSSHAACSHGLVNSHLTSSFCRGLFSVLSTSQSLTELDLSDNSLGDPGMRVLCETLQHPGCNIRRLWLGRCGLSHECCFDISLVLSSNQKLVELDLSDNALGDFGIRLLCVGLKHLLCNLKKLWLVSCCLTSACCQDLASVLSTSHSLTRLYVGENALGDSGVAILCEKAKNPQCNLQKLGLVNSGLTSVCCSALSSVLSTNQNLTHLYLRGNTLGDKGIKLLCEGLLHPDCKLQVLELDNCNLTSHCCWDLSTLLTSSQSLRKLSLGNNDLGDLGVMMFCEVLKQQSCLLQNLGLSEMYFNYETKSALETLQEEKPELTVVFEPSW
# T2 sequence (Q8TDX7 whole entry): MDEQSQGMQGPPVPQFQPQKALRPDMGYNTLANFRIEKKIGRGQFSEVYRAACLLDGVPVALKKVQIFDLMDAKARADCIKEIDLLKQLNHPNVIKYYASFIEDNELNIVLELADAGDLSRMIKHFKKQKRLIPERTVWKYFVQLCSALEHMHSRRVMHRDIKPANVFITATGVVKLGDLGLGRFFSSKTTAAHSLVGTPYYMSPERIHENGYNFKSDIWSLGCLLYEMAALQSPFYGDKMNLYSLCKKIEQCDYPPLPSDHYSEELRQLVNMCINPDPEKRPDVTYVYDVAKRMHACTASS
structure (smiles),measurement,setting,value
"CC1=C(O)C(=O)C=C2C1=CC=C1[C@@]2(C)CC[C@@]2(C)[C@@H]3C[C@](C)(N(C)C(=O)C(=O)N(C)C)CC[C@]3(C)CC[C@]12C [Compound 22, N′-[(2R,4aS,6aR,6aS,14aS,14bR)-10-hydroxy-2,4a,6a,6a,9,14a-hexamethyl-11-oxo-1,3,4,5,6,13,14,14b-octahydropicen-2-yl]-N,N,N′-trimethyl-oxamide]","expression of LPS-induced NF-kB target proteins iNOS, COX2, NLRP3, and IL-1β",[1],"markedly inhibited expression of the LPS-induced NF-kB target proteins iNOS, COX2, NLRP3, and IL-1β in a dose-dependent fashion"
same,ASC complex formation,NLRP3 inflammasome [2],strongly inhibited this ASC complex formation with an inhibitory capacity that was stronger than that observed for celastrol (compound 1) and MCC950
same,minimal effective concentration,"NLRP3 inflammasome [3]; Homo sapiens, FIG. 3C, read-out: concentration at which a strong inhibitory function was observed (as low as)",≤ 0.025 µM
same,inhibition of cellular ASC+FLICA+ specks / inflammasome complex,NLRP3 inflammasome [3]; FIG. 3B,strong inhibitory effect; also recorded: inhibited NLRP3 inflammasome activity in THP1 and the cellular inflammasome complex as visualized by Amnis analysis
same,protection of NLRP3 protein from Pronase-induced degradation,NLRP3,"markedly improved protection of NLRP3 protein, but not NEK7, from Pronase-induced degradation"
same,protection of NLRP3 protein from Pronase-induced degradation,NLRP3; listed as CLM-022,markedly protected NLRP3 protein from degradation which was obviously more efficient than that of MCC950
same,protection of NEK7 from Pronase-induced degradation,NEK7,did not protect NEK7 from Pronase-induced degradation
